Assay results published in ChEMBL document CHEMBL5214948, “Boronic Acid: A Novel Pharmacophore Targeting Src Homology 2 (SH2) Domain of STAT3” (J Med Chem, 2022).
Calls of active or inactive are those of the source. The calls are words filed in the database; no cut-off is given here.

Key:
MGC-803 [1] = assay: Inhibition of cell migration in human MGC-803 cells assessed as cell migration incubated for 24 hrs by microscopy based by scratch wound healing assay; format: functional; conditions: dose 1-3 µM, DDE = dose-dependent effect
AGS [2] = assay: Inhibition of cell migration in human AGS cells assessed as cell migration incubated for 24 hrs by microscopy based by scratch wound healing assay; format: functional; conditions: dose 1-3 µM, DDE = dose-dependent effect
AGS [3] = assay: Inhibition of cell invasion in human AGS cells measured after 24 hrs by crystal violet staining based imaging transwell assay; format: functional; conditions: dose 1-3 µM, DDE = dose-dependent effect
MGC-803 [4] = assay: Inhibition of cell invasion in human MGC-803 cells measured after 24 hrs by crystal violet staining based imaging transwell assay; format: functional; conditions: DDE = dose-dependent effect
MGC-803 [5] = assay: Antitumor activity against human MGC-803 cells xenografted in ip dosed BALB/c nude mouse assessed as supression of tumor growth measured every day for 20 days; format: functional, organism-based; conditions: dose 5-15 mg/kg, time 20.0 day, DDE = dose-dependent effect
MGC-803 [6] = assay: Antitumor activity against human MGC-803 cells xenografted in BALB/c nude mouse assessed as tumor growth inhibition at 5 mg/kg, ip measured every day for 20 days; format: functional; set-up: scale not given: the % may be the effect or the level left; conditions: time 20 day
MGC-803 [7] = assay: Antitumor activity against human MGC-803 cells xenografted in BALB/c nude mouse assessed as tumor growth inhibition at 15 mg/kg, ip measured every day for 20 days; format: functional; set-up: scale not given: the % may be the effect or the level left; conditions: time 20 day
[8] = Toxicity in BALB/c nude mouse xenografted with MGC-803 cells assessed as effect on body weight at 15 mg/kg, ip measured every day for 20 days; format: organism-based; conditions: in vivo, 480 h, time 20 day
[9] = Toxicity in BALB/c nude mouse xenografted with MGC-803 cells assessed as effect on body weight at 5 mg/kg, ip measured every day for 20 days; format: organism-based; conditions: in vivo, 480 h, time 20 day
MGC-803 [10] = assay: Antitumor activity against human MGC-803 cells xenografted in BALB/c nude mouse assessed as reduction in phosphorylated STAT3 at Y705 residue at 15 mg/kg, ip measured every day for 20 days by immunohistochemical analysis; format: functional, organism-based; conditions: time 20.0 day
MGC-803 [11] = assay: Antitumor activity against human MGC-803 cells xenografted in BALB/c nude mouse assessed as reduction in phosphorylated STAT3 at Y705 residue at 5 mg/kg, ip measured every day for 20 days by immunohistochemical analysis; format: functional, organism-based; conditions: time 20.0 day
MGC-803 [12] = assay: Antitumor activity against human MGC-803 cells xenografted in BALB/c nude mouse assessed as reduction in Ki67 expression at 15 mg/kg, ip measured every day for 20 days by immunohistochemical analysis; format: functional, organism-based; conditions: time 20.0 day
MGC-803 [13] = assay: Antitumor activity against human MGC-803 cells xenografted in BALB/c nude mouse assessed as reduction in Ki67 expression at 5 mg/kg, ip measured every day for 20 days by immunohistochemical analysis; format: functional, organism-based; conditions: time 20.0 day
MGC-803 [14] = assay: Antitumor activity against human MGC-803 cells xenografted in BALB/c nude mouse assessed as reduction in tumor progression at 5 mg/kg, ip measured every day for 20 days by immunohistochemical analysis; format: functional, organism-based; conditions: time 20.0 day
MGC-803 [15] = assay: Antitumor activity against human MGC-803 cells xenografted in BALB/c nude mouse assessed as reduction in tumor progression at 15 mg/kg, ip measured every day for 20 days by immunohistochemical analysis; format: functional, organism-based; conditions: time 20.0 day
MGC-803 [16] = assay: Antitumor activity against human MGC-803 cells xenografted in BALB/c nude mouse assessed as reduction in tumor cells at 5 mg/kg, ip measured every day for 20 days by immunohistochemical analysis; format: functional, organism-based; conditions: time 20.0 day
MGC-803 [17] = assay: Antitumor activity against human MGC-803 cells xenografted in BALB/c nude mouse assessed as reduction in tumor cells at 15 mg/kg, ip measured every day for 20 days by immunohistochemical analysis; format: functional, organism-based; conditions: time 20.0 day
MGC-803 [18] = assay: Antitumor activity against human MGC-803 cells xenografted in BALB/c nude mouse assessed as reduction in c-myc expression at 15 mg/kg, ip measured every day for 20 days by immunohistochemical analysis; format: functional, organism-based; conditions: time 20.0 day
MGC-803 [19] = assay: Antitumor activity against human MGC-803 cells xenografted in BALB/c nude mouse assessed as reduction in c-myc expression at 5 mg/kg, ip measured every day for 20 days by immunohistochemical analysis; format: functional, organism-based; conditions: time 20.0 day
MGC-803 [20] = assay: Antitumor activity against human MGC-803 cells xenografted in BALB/c nude mouse assessed as reduction in Bcl-xL expression at 15 mg/kg, ip measured every day for 20 days by immunohistochemical analysis; format: functional, organism-based; conditions: time 20.0 day
MGC-803 [21] = assay: Antitumor activity against human MGC-803 cells xenografted in BALB/c nude mouse assessed as reduction in Bcl-xL expression at 5 mg/kg, ip measured every day for 20 days by immunohistochemical analysis; format: functional, organism-based; conditions: time 20.0 day
[22] = Toxicity in nude BALB/c nude mouse xenografted with human MGC-803 cells assessed as morphological changes in heart at 5 to 15 mg/kg, ip measured every day for 20 days by H and E staining based assay; format: organism-based; conditions: in vivo, 480 h, time 20 day
[23] = Toxicity in nude BALB/c nude mouse xenografted with human MGC-803 cells assessed as morphological changes in liver at 5 to 15 mg/kg, ip measured every day for 20 days by H and E staining based assay; format: organism-based; conditions: in vivo, 480 h, time 20 day
[24] = Toxicity in nude BALB/c nude mouse xenografted with human MGC-803 cells assessed as morphological changes in lung at 5 to 15 mg/kg, ip measured every day for 20 days by H and E staining based assay; format: organism-based; conditions: in vivo, 480 h, time 20 day
[25] = Toxicity in nude BALB/c nude mouse xenografted with human MGC-803 cells assessed as morphological changes in kidney at 5 to 15 mg/kg, ip measured every day for 20 days by H and E staining based assay; format: organism-based; conditions: in vivo, 480 h, time 20 day
[26] = Toxicity in nude BALB/c nude mouse xenografted with human MGC-803 cells assessed as morphological changes in spleen at 5 to 15 mg/kg, ip measured every day for 20 days by H and E staining based assay; format: organism-based; conditions: in vivo, 480 h, time 20 day
[27] = target: Signal transducer and activator of transcription 3 (Homo sapiens, UniProt P40763); assay: Inhibition of STAT3 at Y705 residue phosphorylation at in human MGC-803 cells at 5 uM pretreated for 48 hrs followed by compound washout and measured after 72 hrs by immunoblotting analysis
Sequence of Signal transducer and activator of transcription 3 (P40763 whole entry, looked up): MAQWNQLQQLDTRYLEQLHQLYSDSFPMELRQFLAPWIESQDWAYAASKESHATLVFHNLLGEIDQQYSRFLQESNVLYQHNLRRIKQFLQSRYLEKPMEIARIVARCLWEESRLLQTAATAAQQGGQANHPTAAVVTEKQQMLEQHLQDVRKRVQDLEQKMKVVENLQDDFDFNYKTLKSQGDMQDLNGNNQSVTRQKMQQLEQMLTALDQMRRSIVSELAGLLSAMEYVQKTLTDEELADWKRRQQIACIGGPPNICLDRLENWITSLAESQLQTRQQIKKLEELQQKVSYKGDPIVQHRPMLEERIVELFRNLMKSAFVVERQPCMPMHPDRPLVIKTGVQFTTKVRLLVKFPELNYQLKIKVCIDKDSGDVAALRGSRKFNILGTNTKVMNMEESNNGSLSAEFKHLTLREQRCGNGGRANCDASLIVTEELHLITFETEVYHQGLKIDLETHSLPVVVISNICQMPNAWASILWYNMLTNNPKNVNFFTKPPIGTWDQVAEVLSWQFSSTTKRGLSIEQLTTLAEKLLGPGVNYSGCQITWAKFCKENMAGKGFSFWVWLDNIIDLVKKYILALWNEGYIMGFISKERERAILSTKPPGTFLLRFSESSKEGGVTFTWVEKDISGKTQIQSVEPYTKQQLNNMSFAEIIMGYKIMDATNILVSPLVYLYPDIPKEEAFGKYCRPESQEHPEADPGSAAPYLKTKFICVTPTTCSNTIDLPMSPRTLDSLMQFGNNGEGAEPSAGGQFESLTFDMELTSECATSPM

Compound: CN(CC(=O)N(Cc1ccc(C2CCCCC2)cc1)c1ccc(B(O)O)cc1)S(=O)(=O)c1c(F)c(F)c(F)c(F)c1F
- inhibition (MGC-803 [1]): Dde
- inhibition (AGS [2]): Dde
- inhibition (AGS [3]): Dde
- inhibition (MGC-803 [4]): Dde
- Activity (MGC-803 [5]): Dde
- Activity (MGC-803 [6]): 65.14%
- Activity (MGC-803 [7]): 79.13%
- Activity [8]: Non-Toxic
- Activity [9]: Non-Toxic
- Activity (MGC-803 [10]): Active
- Activity (MGC-803 [11]): Active
- Activity (MGC-803 [12]): Active
- Activity (MGC-803 [13]): Active
- Activity (MGC-803 [14]): Active
- Activity (MGC-803 [15]): Active
- Activity (MGC-803 [16]): Active
- Activity (MGC-803 [17]): Active
- Activity (MGC-803 [18]): Active
- Activity (MGC-803 [19]): Active
- Activity (MGC-803 [20]): Active
- Activity (MGC-803 [21]): Active
- Activity [22]: Non-Toxic
- Activity [23]: Non-Toxic
- Activity [24]: Non-Toxic
- Activity [25]: Non-Toxic
- Activity [26]: Non-Toxic
- inhibition [27]: Active
